This assay in a line: In vitro inhibition fibrin clot formation after addition of thrombin. It counts as functional, Homo sapiens.
Consider `CC[C@H](C)[C@H](NC(=O)[C@@H]1CCCN1C(=O)C(CCC(=O)O)NC(=O)[C@H](Cc1ccc(O)cc1)NC(=O)CCC(=O)O)C(=O)N1CCC[C@H]1C(=O)NC(CCC(=O)O)C(=O)NC(CCC(=O)O)C(=O)N[C@@H](Cc1ccc(NS(=O)(=O)O)cc1)C(=O)N[C@@H](CC(C)C)C(=O)NC(CCC(=O)O)C(=O)O` (stereo in doubt), for which half-maximal inhibition (IC50) was put at 120 nM. In the case of `CC[C@H](C)[C@H](NC(=O)[C@@H]1CCCN1C(=O)C(CCC(=O)O)NC(=O)[C@H](Cc1ccccc1)NC(=O)CCC(=O)O)C(=O)N1CCC[C@H]1C(=O)NC(CCC(=O)O)C(=O)NC(CCC(=O)O)C(=O)N[C@@H](C)C(=O)N[C@@H](Cc1ccc(O)cc1)C(=O)NC(CCC(=O)O)C(=O)O` (stereo in doubt), the IC50 – broadly, the concentration that gives 50% inhibition – was 1200 nM.

In turn, `CC[C@H](C)[C@H](NC(=O)[C@@H]1CCCN1C(=O)C(CCC(=O)O)NC(=O)[C@H](Cc1ccc(O)cc1)NC(=O)CCC(=O)O)C(=O)N1CCC[C@H]1C(=O)NC(CCC(=O)O)C(=O)NC(CCC(=O)O)C(=O)N[C@@H](C)C(=O)N[C@@H](Cc1ccc(N)cc1)C(=O)NC(CCC(=O)O)C(=O)O` (stereo in doubt) had an IC50 of 2900 nM.

For the compound `CC[C@H](C)[C@H](NC(=O)[C@@H]1CCCN1C(=O)C(CCC(=O)O)NC(=O)[C@H](Cc1ccc(O)cc1)NC(=O)CCC(=O)O)C(=O)N1CCC[C@H]1C(=O)NC(CCC(=O)O)C(=O)NC(CCC(=O)O)C(=O)N[C@@H](Cc1ccc(N)cc1)C(=O)N[C@@H](CC(C)C)C(=O)NC(CCC(=O)O)C(=O)O` (stereo in doubt), the midpoint of inhibition, the IC50, lay at 380 nM.

On to `CC[C@H](C)[C@H](NC(=O)[C@@H]1CCCN1C(=O)C(CCC(=O)O)NC(=O)[C@H](Cc1ccccc1)NC(=O)CCC(=O)O)C(=O)N1CCC[C@H]1C(=O)NC(CCC(=O)O)C(=O)NC(CCC(=O)O)C(=O)N[C@@H](Cc1ccc(OS(=O)(=O)O)cc1)C(=O)N[C@@H](CC(C)C)C(=O)NC(CCC(=O)O)C(=O)O` (stereo in doubt), for which it took 87 nM to reach half-maximal inhibition (IC50). The result for `CC[C@H](C)[C@H](NC(=O)[C@@H]1CCCN1C(=O)C(CCC(=O)O)NC(=O)[C@H](Cc1ccc(O)cc1)NC(=O)CCC(=O)O)C(=O)N1CCC[C@H]1C(=O)NC(CCC(=O)O)C(=O)NC(CCC(=O)O)C(=O)N[C@@H](C)C(=O)N[C@@H](Cc1ccc(NS(=O)(=O)O)cc1)C(=O)NC(CCC(=O)O)C(=O)O` (stereo in doubt) reads 2500 nM; that for `CC[C@H](C)[C@H](NC(=O)[C@@H]1CCCN1C(=O)C(CCC(=O)O)NC(=O)[C@H](Cc1ccc(O)cc1)NC(=O)CCC(=O)O)C(=O)N1CCC[C@H]1C(=O)NC(CCC(=O)O)C(=O)NC(CCC(=O)O)C(=O)N[C@@H](C)C(=O)N[C@@H](Cc1ccc([N+](=O)[O-])cc1)C(=O)NC(CCC(=O)O)C(=O)O` (stereo in doubt), 710 nM. The result for `CC[C@H](C)[C@H](NC(=O)[C@@H]1CCCN1C(=O)C(CCC(=O)O)NC(=O)[C@H](Cc1ccccc1)NC(=O)CCC(=O)O)C(=O)N1CCC[C@H]1C(=O)NC(CCC(=O)O)C(=O)NC(CCC(=O)O)C(=O)N[C@@H](Cc1ccc(O)cc1)C(=O)N[C@@H](CC(C)C)C(=O)NC(CCC(=O)O)C(=O)O` (stereo in doubt) reads 1600 nM; that for `CC[C@H](C)[C@H](NC(=O)[C@@H]1CCCN1C(=O)C(CCC(=O)O)NC(=O)[C@H](Cc1ccc(O)cc1)NC(=O)CCC(=O)O)C(=O)N1CCC[C@H]1C(=O)NC(CCC(=O)O)C(=O)NC(CCC(=O)O)C(=O)N[C@@H](Cc1ccc([N+](=O)[O-])cc1)C(=O)N[C@@H](CC(C)C)C(=O)NC(CCC(=O)O)C(=O)O` (stereo in doubt), 2800 nM. The figure for `CC[C@H](C)[C@H](NC(=O)[C@@H]1CCCN1C(=O)C(CCC(=O)O)NC(=O)[C@H](Cc1ccccc1)NC(=O)CCC(=O)O)C(=O)N1CCC[C@H]1C(=O)NC(CCC(=O)O)C(=O)NC(CCC(=O)O)C(=O)N[C@@H](C)C(=O)N[C@@H](Cc1ccc(OS(=O)(=O)O)cc1)C(=O)NC(CCC(=O)O)C(=O)O` (stereo in doubt) is 300 nM; for H-GDFEPIPEDAYDE-OH it is 2700 nM.

(Values after ChEMBL document CHEMBL1125630, “Positional effects of sulfation in hirudin and hirudin PA related anticoagulant peptides” (J Med Chem, 1991).)
